Columns and labels:
Type in all cases: biochemical
[1] = target: T1, MMP-13 catalytic domain (MMP-13CD) (Homo sapiens, UniProt P45452); experiment: Inhibition of MMP-13 catalytic domain (thiopeptolide substrate hydrolysis); details: Biological Table 1; read-out: MMP-13CD IC50
T1 construct: use the catalytic domain of the MMP-13 enzyme, namely matrix metalloproteinase-13 catalytic domain (“MMP-13CD”), rather than the corresponding full-length enzyme
Description: (§1) The assays measure the amount by which a test compound reduces the hydrolysis of a thiopeptolide substrate catalyzed by a matrix metalloproteinase enzyme. Such assays are described in detail by Ye et al., in Biochemistry, 1992;31(45):11231-11235, which is incorporated herein by reference. One such assay is described below in Biological Method 1.
Some of the particular methods described below use the catalytic domain of the MMP-13 enzyme, namely matrix metalloproteinase-13 catalytic domain (“MMP-13CD”), rather than the corresponding full-length enzyme, MMP-13. It has been shown previously by Ye Qi-Zhuang, Hupe D., and Johnson L. (Current Medicinal Chemistry, 1996;3:407-418) that inhibitor activity against a catalytic domain of an MMP is predictive of the inhibitor activity against the respective full-length MMP enzyme.
(§2) Thiopeptolide substrates show virtually no decomposition or hydrolysis at or below neutral pH in the absence of a matrix metalloproteinase enzyme. A typical thiopeptolide substrate commonly utilized for assays is Ac-Pro-Leu-Gly-thioester-Leu-Leu-Gly-OEt. A 100 μL assay mixture will contain 50 mM of N-2-hydroxyethylpiperazine-N′-2-ethanesulfonic acid buffer (“HEPES,” pH 7.0), 10 mM CaCl2, 100 μM thiopeptolide substrate, and 1 mM 5,5′-dithio-bis-(2-nitro-benzoic acid) (DTNB). The thiopeptolide substrate concentration may be varied, for example from 10 to 800 μM to obtain Km and Kcat values. The change in absorbance at 405 nm is monitored on a Thermo Max microplate reader (molecular Devices, Menlo Park, Calif.) at room temperature (22° C.). The calculation of the amount of hydrolysis of the thiopeptolide substrate is based on E412=13600 M^−1 cm^−1 for the DTNB-derived product 3-carboxy-4-nitrothiophenoxide. Assays are carried out with and without matrix metalloproteinase inhibitor compounds, and the amount of hydrolysis is compared for a determination of inhibitory activity of the test compounds.
(§3) Test compounds were evaluated at various concentrations in order to determine their respective IC50 values, the micromolar concentration of compound required to cause a 50% inhibition of catalytic activity of the respective enzyme.

[2] = target: MMP-3 catalytic domain (MMP-3CD) (Homo sapiens, UniProt P08254); experiment: Inhibition of MMP-3 catalytic domain (thiopeptolide substrate hydrolysis, MES pH 6.0)
MMP-3 catalytic domain (MMP-3CD), sequence (P08254 100-272 limits assumed, species assumed): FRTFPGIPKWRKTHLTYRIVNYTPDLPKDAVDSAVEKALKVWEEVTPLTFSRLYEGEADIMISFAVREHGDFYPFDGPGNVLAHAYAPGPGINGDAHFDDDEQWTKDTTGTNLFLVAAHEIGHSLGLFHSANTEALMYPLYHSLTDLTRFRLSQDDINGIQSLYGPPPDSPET
Description: as §1, §2, §3
It should be appreciated that the assay buffer used with MMP-3CD was 50 mM N-morpholinoethane sulfonate (“MES”) at pH 6.0 rather than the HEPES buffer at pH 7.0 described above.

[3] = target: T2, MMP-12 catalytic domain (MMP-12CD) (Homo sapiens, UniProt P39900); experiment: Inhibition of MMP-12 catalytic domain (thiopeptolide substrate hydrolysis)
T2 construct: MMP-3 catalytic domain, MMP-12 catalytic domain, MMP-14 catalytic domain, and MMP-17 catalytic domain
T2 sequence (P39900 106-263 limits assumed, species assumed): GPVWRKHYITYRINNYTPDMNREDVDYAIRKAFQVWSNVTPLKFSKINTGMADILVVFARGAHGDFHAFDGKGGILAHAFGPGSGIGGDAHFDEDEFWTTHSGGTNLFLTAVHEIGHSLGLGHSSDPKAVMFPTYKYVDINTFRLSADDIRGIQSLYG
Description: as §1, §2, §3
(§4) The test described above for the inhibition of MMP-13 may also be adapted and used to determine the ability of the compounds of Formula I to inhibit the matrix metalloproteases MMP-1, MMP-2, MMP-3, MMP-7, MMP-9, MMP-12 and MMP-14.

[4] = target: MMP-14 catalytic domain (MMP-14CD) (Homo sapiens, UniProt P50281); experiment: Inhibition of MMP-14 catalytic domain (thiopeptolide substrate hydrolysis)
Description: as §1, §2, §3, §4

[5] = target: T3, MMP-17 catalytic domain (MMP-17CD) (Homo sapiens, UniProt Q9ULZ9); experiment: Inhibition of MMP-17 catalytic domain (thiopeptolide substrate hydrolysis)
T3 construct: MMP-3 catalytic domain, MMP-12 catalytic domain, MMP-14 catalytic domain, and MMP-17 catalytic domain
T3 sequence (Q9ULZ9 126-295 limits assumed): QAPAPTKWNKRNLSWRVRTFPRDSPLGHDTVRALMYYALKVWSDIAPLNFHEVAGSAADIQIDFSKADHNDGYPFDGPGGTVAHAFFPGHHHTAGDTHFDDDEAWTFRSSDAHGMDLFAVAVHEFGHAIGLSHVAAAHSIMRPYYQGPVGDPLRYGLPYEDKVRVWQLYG
Description: as §1, §2, §3

IC50 [1] | IC50 [2] | IC50 [3] | IC50 [4] | IC50 [5] | Structure (SMILES)
680 nM | > 100 µM | > 30 µM | > 100 µM | > 100 µM | COc1cc(CNC(=O)c2ccc3ccn(Cc4ccc(S(C)(=O)=O)cc4)c(=O)c3c2)ccn1 [Example 51, 2-(4-methane-sulfonylbenzyl)-1-oxo-1,2-dihydro-isoquinoline-7-carboxylic Acid (2-methoxypyridin-4-ylmethyl)amide]
220 nM | 31 µM | 22 µM | > 100 µM | > 100 µM | Cc1ccc(CNC(=O)c2ccc3ccn(Cc4ccc(-c5nn[nH]n5)cc4)c(=O)c3c2)cc1 [Example 60, 1-oxo-2-[4-(2H-tetrazol-5-yl)benzyl]-1,2-dihydroisoquinoline-7-carboxylic Acid 4-methyl-benzylamide]
40 nM | > 100 µM | > 30 µM | > 100 µM | > 100 µM | O=C(NCc1ccncc1)c1ccc2ccn(Cc3ccc(-c4nn[nH]n4)cc3)c(=O)c2c1 [Example 57, 1-oxo-2-[4-(2H-tetrazol-5-yl)benzyl]-1,2-dihydroisoquinoline-7-carboxylic Acid (pyridin-4-ylmethyl)amide]
850 nM | > 30 µM | > 30 µM | > 30 µM | > 30 µM | COc1ccc(CNC(=O)c2ccc3ccn(Cc4ccc(S(C)(=O)=O)cc4)c(=O)c3c2)cc1 [Example 52, 2-(4-methane-sulfonylbenzyl)-1-oxo-1,2-dihydro-isoquinoline-7-carboxylic Acid 4-methoxy-benzylamide]
210 nM | > 30 µM | 61 µM | > 100 µM | > 100 µM | COc1cccc(CNC(=O)c2ccc3ccn(Cc4ccc(S(C)(=O)=O)cc4)c(=O)c3c2)c1 [Example 53, 2-(4-methane-sulfonylbenzyl)-1-oxo-1,2-dihydro-isoquinoline-7-carboxylic Acid 3-methoxy-benzylamide]
2.9 nM | > 10 µM | > 10 µM | > 30 µM | > 30 µM | COc1cccc(CNC(=O)c2ccc3ccn(Cc4ccc(-c5nn[nH]n5)cc4)c(=O)c3c2)c1 [Example 59, 1-oxo-2-[4-(2H-tetrazol-5-yl)benzyl]-1,2-dihydroisoquinoline-7-carboxylic Acid 3-methoxy-benzylamide]
32 nM | 12 µM | 5 µM | > 10 µM | > 10 µM | CSc1ccc(CNC(=O)c2ccc3ccn(Cc4ccc(-c5nn[nH]n5)cc4)c(=O)c3c2)cc1 [Example 61, 1-oxo-2-[4-(2H-tetrazol-5-yl)benzyl]-1,2-dihydroisoquinoline-7-carboxylic Acid 4-methyl-sulfanylbenzylamide]
91 nM | > 100 µM | > 10 µM | > 100 µM | > 30 µM | COc1cc(CNC(=O)c2ccc3ccn(Cc4ccc(-c5nn[nH]n5)cc4)c(=O)c3c2)ccc1O [Example 65, 1-oxo-2-[4-(2H-tetrazol-5-yl)benzyl]-1,2-dihydroisoquinoline-7-carboxylic Acid 4-hydroxy-3-methoxy-benzylamide]
17 nM | 27 µM | 56 µM | > 100 µM | 11 µM | COc1ccc(CNC(=O)c2ccc3ccn(Cc4ccc(-c5nn[nH]n5)cc4)c(=O)c3c2)cc1 [Example 58, 1-oxo-2-[4-(2H-tetrazol-5-yl)benzyl]-1,2-dihydroisoquinoline-7-carboxylic Acid 4-methoxy-benzylamide]
430 nM | 6.2 µM | 6.8 µM | > 10 µM | > 10 µM | CSc1ccc(CNC(=O)c2ccc3ccn(Cc4ccc(C#N)cc4)c(=O)c3c2)cc1 [Example 40, 2-(4-cyanobenzyl)-1-oxo-1,2-dihydro-isoquinoline-7-carboxylic Acid 4-methylsulfanyl-benzylamide]

Continued, compound first:

Structure (SMILES) | IC50 [1] | IC50 [2] | IC50 [3] | IC50 [4] | IC50 [5]
O=C1CC(NC(=O)c2ccc(Cn3ccc4ccc(C#CCc5ccccc5)cc4c3=O)cc2)=NN1 [Example 22, N-(5-oxo-4,5-dihydro-1H-pyrazol-3-yl)-4-[1-oxo-7-(3-phenylprop-1-ynyl)-1H-isoquinolin-2-ylmethyl]benzamide] | 19 nM | 4.1 µM | > 100 µM | 16 µM | 14 µM
COc1cc(CNC(=O)c2ccc3ccn(Cc4ccc(C(=O)O)cc4)c(=O)c3c2)ccc1O [Example 32] | 150 nM | > 100 µM | > 100 µM | > 100 µM | > 100 µM
O=C(O)c1ccc(Cn2ccc3ccc(C(=O)NCc4cccnc4)cc3c2=O)cc1 [Example 30, 4-{1-oxo-7-[(pyridin-3-ylmethyl)carbamoyl]-1H-isoquinolin-2-ylmethyl}benzoic Acid] | 400 nM | > 100 µM | > 100 µM | > 100 µM | > 100 µM
COc1ccc(CNC(=O)c2ccc3ccn(Cc4ccc(F)c(F)c4)c(=O)c3c2)cc1 [Example 25] | 330 nM | 60 µM | > 30 µM | > 100 µM | > 30 µM
O=C(O)c1ccc(Cn2ccc3ccc(C(=O)NCc4ccc(F)cc4)cc3c2=O)cc1 [Example 31, 4-[7-(4-fluoro-benzylcarbamoyl)-1-oxo-1H-isoquinolin-2-ylmethyl]benzoic Acid] | 30 nM | > 100 µM | > 100 µM | > 100 µM | > 100 µM
COc1cc(CNC(=O)c2ccc3ccn(Cc4ccc(F)c(F)c4)c(=O)c3c2)ccn1 [Example 23, 2-(3,4-difluorobenzyl)-1-oxo-1,2-dihydroisoquinoline-7-carboxylic acid (2-methoxypyridin-4-ylmethyl)amide] | 290 nM | > 100 µM | > 100 µM | > 100 µM | > 10 µM
O=C(O)c1ccc(Cn2ccc3ccc(C(=O)NCc4ccncc4)cc3c2=O)cc1 [Example 29, 4-{1-oxo-7-[(pyridin-4-ylmethyl)carbamoyl]-1H-isoquinolin-2-ylmethyl}benzoic Acid] | 190 nM | > 100 µM | > 100 µM | > 100 µM | > 100 µM
O=c1c2cc(C#CCc3ccccc3)ccc2ccn1Cc1ccc(-c2nn[nH]n2)cc1 [Example 18, 7-(3-phenylprop-1-ynyl)-2-[4-(2H-tetrazol-5-yl)benzyl]-2H-isoquinolin-1-one] | 2.9 nM | 4 µM | > 30 µM | > 30 µM | > 30 µM
O=C(NN1CCCCC1)c1ccc(Cn2ccc3ccc(C#CCc4ccccc4)cc3c2=O)cc1 [Example 20, 4-[1-oxo-7-(3-phenylprop-1-ynyl)-1H-isoquinolin-2-ylmethyl]-N-piperidin-1-yl-benzamide] | 39 nM | 8 µM | > 30 µM | > 30 µM | 2.3 µM
COc1cccc(CNC(=O)c2ccc3ccn(Cc4ccc(F)c(F)c4)c(=O)c3c2)c1 [Example 24] | 93 nM | > 30 µM | 14 µM | 0.093 µM | > 30 µM
COc1cc(CNC(=O)c2ccc3ccn(Cc4ccc(C(=O)O)cc4)c(=O)c3c2)ccn1 [Example 27, 4-{7-[(2-methoxypyridin-4-ylmethyl)carbamoyl]-1-oxo-1H-isoquinolin-2-ylmethyl}benzoic acid] | 36 nM | > 100 µM | > 100 µM | > 100 µM | 74 µM
